According to patent US8114880B2, “Piperidine or piperazine substituted tetrahydro-naphthalene-1-carboxylic acid MTP inhibiting compounds” (Janssen Pharmaceutica N.V., priority 2006, dated 2012):

target: MTP (Homo sapiens, UniProt P55157); assay: MTP assay (triglyceride transfer from donor to acceptor vesicles); assay type: biochemical; conditions: MTP activity, percent triglyceride transfer from donor to acceptor vesicles, 37° C.
Method in brief: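 Radiolabelled triglyceride transfer from donor vesicles (phosphatidylcholine, 7.5 mol % cardiolipin, 0.25 mol % glycerol tri[1-^14C]-oleate) to phosphatidylcholine acceptor vesicles with BSA, pH 7.5 Tris buffer; compounds in DMSO (0.13% final), 5 min preincubation at 37° C before MTP addition. Donor vesicles removed on DEAE-52; acceptor-supernatant ^14C counts give percent transfer.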

Chain of MTP (P55157 19-894, species assumed): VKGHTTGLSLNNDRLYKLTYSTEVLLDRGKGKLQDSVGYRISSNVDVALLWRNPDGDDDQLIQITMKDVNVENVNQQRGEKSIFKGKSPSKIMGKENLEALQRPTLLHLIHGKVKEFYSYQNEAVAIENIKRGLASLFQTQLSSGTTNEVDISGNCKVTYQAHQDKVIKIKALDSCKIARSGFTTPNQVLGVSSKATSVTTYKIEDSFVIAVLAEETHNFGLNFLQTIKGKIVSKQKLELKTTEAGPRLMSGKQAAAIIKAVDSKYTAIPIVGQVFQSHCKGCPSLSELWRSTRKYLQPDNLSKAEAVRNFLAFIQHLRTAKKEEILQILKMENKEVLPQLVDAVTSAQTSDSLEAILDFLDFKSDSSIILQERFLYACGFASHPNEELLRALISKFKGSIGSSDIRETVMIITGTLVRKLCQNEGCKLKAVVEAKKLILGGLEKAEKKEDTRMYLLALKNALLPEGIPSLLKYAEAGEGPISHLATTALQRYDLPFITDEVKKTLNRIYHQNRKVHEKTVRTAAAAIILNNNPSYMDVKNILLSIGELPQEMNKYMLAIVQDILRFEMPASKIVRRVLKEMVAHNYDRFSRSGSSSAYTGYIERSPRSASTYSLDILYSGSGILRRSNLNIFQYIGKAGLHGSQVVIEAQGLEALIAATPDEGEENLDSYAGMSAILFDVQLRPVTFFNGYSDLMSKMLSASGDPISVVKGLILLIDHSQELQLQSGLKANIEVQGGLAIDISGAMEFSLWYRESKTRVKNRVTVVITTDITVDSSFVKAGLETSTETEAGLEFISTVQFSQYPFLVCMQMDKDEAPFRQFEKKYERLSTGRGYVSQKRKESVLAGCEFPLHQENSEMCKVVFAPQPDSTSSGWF
Chain of MTP (P07237 18-508 partner, species assumed): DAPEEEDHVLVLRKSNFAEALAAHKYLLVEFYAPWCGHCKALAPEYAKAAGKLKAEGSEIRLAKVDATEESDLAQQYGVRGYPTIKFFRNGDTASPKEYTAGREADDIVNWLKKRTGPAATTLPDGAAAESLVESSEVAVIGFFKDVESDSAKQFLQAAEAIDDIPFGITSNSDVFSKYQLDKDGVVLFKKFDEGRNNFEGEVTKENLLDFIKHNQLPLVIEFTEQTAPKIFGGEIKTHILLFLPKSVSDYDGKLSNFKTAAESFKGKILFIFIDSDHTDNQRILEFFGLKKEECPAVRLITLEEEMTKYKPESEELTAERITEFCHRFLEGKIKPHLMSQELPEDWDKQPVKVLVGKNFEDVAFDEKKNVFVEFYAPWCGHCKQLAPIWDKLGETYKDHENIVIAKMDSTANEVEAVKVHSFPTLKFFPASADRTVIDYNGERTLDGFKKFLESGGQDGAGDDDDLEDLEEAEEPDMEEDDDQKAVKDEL

| Structure (SMILES) | IC50 |
| --- | --- |
| CCOC(=O)C1CCCN(C(=O)[C@@]2(c3ccccc3)CC[C@H](C(=O)N3CCC(NC(=O)c4ccccc4OC)CC3)c3ccccc32)C1 (some centres unmarked) [Co. No. 84] | 228 nM |
| CCOC(=O)C(Cc1ccc(O)cc1)NC(=O)[C@@]1(c2ccccc2)CC[C@H](C(=O)N2CCC(NC(=O)c3ccccc3OC)CC2)c2ccccc21 (some centres unmarked) [Co. No. 85] | > 100 nM |
| CCOC(=O)C(Cc1c[nH]c2ccccc12)NC(=O)[C@@]1(c2ccccc2)CC[C@H](C(=O)N2CCC(NC(=O)c3ccccc3OC)CC2)c2ccccc21 (some centres unmarked) [Co. No. 86] | 66.5 nM |
| COc1ccccc1C(=O)NC1CCN(C(=O)[C@H]2CC[C@@](C(=O)NCCC(=O)OC(C)(C)C)(c3ccccc3)c3ccccc32)CC1 [Co. No. 88] | 2.15 nM |
| COc1ccccc1C(=O)NC1CCN(C(=O)[C@H]2CC[C@@](C(=O)NCCC(=O)O)(c3ccccc3)c3ccccc32)CC1 [Co. No. 90] | 2130 nM |
| COc1ccccc1C(=O)NC1CCN(C(=O)[C@H]2CC[C@@](C(=O)N3CCC[C@H]3C(=O)OC(C)(C)C)(c3ccccc3)c3ccccc32)CC1 [Co. No. 110] | > 100 nM |
| COc1ccccc1C(=O)NC1CCN(C(=O)[C@H]2CC[C@@](C(=O)N[C@@H](CC(=O)O)C(=O)O)(c3ccccc3)c3ccccc32)CC1 [Co. No. 121] | > 10000 nM |
| CCOC(=O)CCNC(=O)[C@@]1(c2ccccc2)CC[C@H](C(=O)N2CCC(NC(=O)c3ccccc3OC)CC2)c2ccccc21 [Co. No. 129] | 1.77 nM |
| COC(=O)CCNC(=O)[C@@]1(c2ccccc2)CC[C@H](C(=O)N2CCC(NC(=O)c3cccn(C)c3=O)CC2)c2ccccc21 [Co. No. 138] | 596 nM |

Other lines, results leading:

| IC50 | Structure (SMILES) |
| --- | --- |
| 38.2 nM | COc1ccccc1C(=O)NC1CCN(C(=O)[C@H]2CC[C@@](C(=O)N[C@H](Cc3ccccc3)C(=O)OC(C)(C)C)(c3ccccc3)c3ccccc32)CC1 [Co. No. 96] |
| 13.6 nM | COc1ccccc1C(=O)NC1CCN(C(=O)[C@H]2CC[C@@](C(=O)N[C@H](C(=O)OC(C)(C)C)C(C)C)(c3ccccc3)c3ccccc32)CC1 [Co. No. 102] |
| 61 nM | COc1ccccc1C(=O)NC1CCN(C(=O)[C@H]2CC[C@@](C(=O)N[C@@H](C(=O)OC(C)(C)C)C(C)C)(c3ccccc3)c3ccccc32)CC1 [Co. No. 103] |
| 21.6 nM | COc1ccccc1C(=O)NC1CCN(C(=O)[C@H]2CC[C@@](C(=O)N[C@@H](CC(C)C)C(=O)OC(C)(C)C)(c3ccccc3)c3ccccc32)CC1 [Co. No. 104] |
| 48.8 nM | COc1ccccc1C(=O)NC1CCN(C(=O)[C@H]2CC[C@@](C(=O)N[C@@H](COC(C)(C)C)C(=O)OC(C)(C)C)(c3ccccc3)c3ccccc32)CC1 [Co. No. 105] |
| 16.1 nM | COc1ccccc1C(=O)NC1CCN(C(=O)[C@H]2CC[C@@](C(=O)N[C@@H](CC(=O)OC(C)(C)C)C(=O)OC(C)(C)C)(c3ccccc3)c3ccccc32)CC1 [Co. No. 106] |
| > 100 nM | COc1ccccc1C(=O)NC1CCN(C(=O)[C@H]2CC[C@@](C(=O)N[C@@H](CCC(N)=O)C(=O)OC(C)(C)C)(c3ccccc3)c3ccccc32)CC1 [Co. No. 107] |
| 9.18 nM | COc1ccccc1C(=O)NC1CCN(C(=O)[C@H]2CC[C@@](C(=O)N[C@@H](CCC(=O)OC(C)(C)C)C(=O)OC(C)(C)C)(c3ccccc3)c3ccccc32)CC1 [Co. No. 108] |
| 2.43 nM | COc1ccccc1C(=O)NC1CCN(C(=O)[C@H]2CC[C@@](C(=O)N[C@@H](CCCCNC(=O)OC(C)(C)C)C(=O)OC(C)(C)C)(c3ccccc3)c3ccccc32)CC1 [Co. No. 109] |
| 18 nM | COc1ccccc1C(=O)NC1CCN(C(=O)[C@H]2CC[C@@](C(=O)N[C@@H](Cc3ccccc3)C(=O)OC(C)(C)C)(c3ccccc3)c3ccccc32)CC1 [Co. No. 112] |

test system: HepG2 cells; assay: Quantification of the secretion of ApoB; assay type: cell-based; conditions: Homo sapiens, HepG2, 24 h, 24 hours of incubation, pIC50 = -log IC50
Experimental: HepG2 cells were cultured in 24-well plates in MEM Rega 3 containing 10% fetal calf serum. At 70% confluency, the medium was changed and the test compound or carrier (DMSO, 0.4% final concentration) was added. After 24 hours of incubation, the medium was transferred to Eppendorf tubes and cleared by centrifugation. A sheep antibody directed against either apoB was added to the supernatant and the mixture was kept at 8° C. for 24 hours. Then, rabbit anti-sheep antibody was added and the immune complex was allowed to precipitate for 24 hours at 8° C. The immunoprecipitate was pelleted by centrifugation for 25 minutes at 1320 g and washed twice with a buffer containing 40 mM Mops, 40 mM NaH2PO4, 100 mM NaF, 0.2 mM DTT, 5 mM EDTA, 5 mM EGTA, 1% Triton-X-100, 0.5% sodium deoxycholate (DOC), 0.1% SDS, 0.2 μM leupeptin and 0.2 μM PMSF. Radioactivity in the pellet was quantified by liquid scintillation counting. The IC50 values are usually converted to pIC50 values (=−log IC50 value) for ease of use.

| Structure (SMILES) | IC50 |
| --- | --- |
| CCOC(=O)C1CCCN(C(=O)[C@@]2(c3ccccc3)CC[C@H](C(=O)N3CCC(NC(=O)c4ccccc4OC)CC3)c3ccccc32)C1 (some centres unmarked) [Co. No. 84] | > 1000 nM |
| CCOC(=O)C(Cc1ccc(O)cc1)NC(=O)[C@@]1(c2ccccc2)CC[C@H](C(=O)N2CCC(NC(=O)c3ccccc3OC)CC2)c2ccccc21 (some centres unmarked) [Co. No. 85] | > 1000 nM |
| CCOC(=O)C(Cc1c[nH]c2ccccc12)NC(=O)[C@@]1(c2ccccc2)CC[C@H](C(=O)N2CCC(NC(=O)c3ccccc3OC)CC2)c2ccccc21 (some centres unmarked) [Co. No. 86] | 653 nM |
| COc1ccccc1C(=O)NC1CCN(C(=O)[C@H]2CC[C@@](C(=O)NCCC(=O)OC(C)(C)C)(c3ccccc3)c3ccccc32)CC1 [Co. No. 88] | 20.6 nM |
| COc1ccccc1C(=O)NC1CCN(C(=O)[C@H]2CC[C@@](C(=O)NCCC(=O)O)(c3ccccc3)c3ccccc32)CC1 [Co. No. 90] | > 1000 nM |
| COc1ccccc1C(=O)NC1CCN(C(=O)[C@H]2CC[C@@](C(=O)N3CCC[C@H]3C(=O)OC(C)(C)C)(c3ccccc3)c3ccccc32)CC1 [Co. No. 110] | 245 nM |
| COc1ccccc1C(=O)NC1CCN(C(=O)[C@H]2CC[C@@](C(=O)N[C@@H](CC(=O)O)C(=O)O)(c3ccccc3)c3ccccc32)CC1 [Co. No. 121] | > 1000 nM |
| CCOC(=O)CCNC(=O)[C@@]1(c2ccccc2)CC[C@H](C(=O)N2CCC(NC(=O)c3ccccc3OC)CC2)c2ccccc21 [Co. No. 129] | 4.36 nM |
| COC(=O)CCNC(=O)[C@@]1(c2ccccc2)CC[C@H](C(=O)N2CCC(NC(=O)c3cccn(C)c3=O)CC2)c2ccccc21 [Co. No. 138] | > 1000 nM |

Now from value to compound:

| IC50 | Structure (SMILES) |
| --- | --- |
| 512 nM | COc1ccccc1C(=O)NC1CCN(C(=O)[C@H]2CC[C@@](C(=O)N[C@H](Cc3ccccc3)C(=O)OC(C)(C)C)(c3ccccc3)c3ccccc32)CC1 [Co. No. 96] |
| 168 nM | COc1ccccc1C(=O)NC1CCN(C(=O)[C@H]2CC[C@@](C(=O)N[C@H](C(=O)OC(C)(C)C)C(C)C)(c3ccccc3)c3ccccc32)CC1 [Co. No. 102] |
| 382 nM | COc1ccccc1C(=O)NC1CCN(C(=O)[C@H]2CC[C@@](C(=O)N[C@@H](C(=O)OC(C)(C)C)C(C)C)(c3ccccc3)c3ccccc32)CC1 [Co. No. 103] |
| 171 nM | COc1ccccc1C(=O)NC1CCN(C(=O)[C@H]2CC[C@@](C(=O)N[C@@H](CC(C)C)C(=O)OC(C)(C)C)(c3ccccc3)c3ccccc32)CC1 [Co. No. 104] |
| 271 nM | COc1ccccc1C(=O)NC1CCN(C(=O)[C@H]2CC[C@@](C(=O)N[C@@H](COC(C)(C)C)C(=O)OC(C)(C)C)(c3ccccc3)c3ccccc32)CC1 [Co. No. 105] |
| 185 nM | COc1ccccc1C(=O)NC1CCN(C(=O)[C@H]2CC[C@@](C(=O)N[C@@H](CC(=O)OC(C)(C)C)C(=O)OC(C)(C)C)(c3ccccc3)c3ccccc32)CC1 [Co. No. 106] |
| > 1000 nM | COc1ccccc1C(=O)NC1CCN(C(=O)[C@H]2CC[C@@](C(=O)N[C@@H](CCC(N)=O)C(=O)OC(C)(C)C)(c3ccccc3)c3ccccc32)CC1 [Co. No. 107] |
| 74.8 nM | COc1ccccc1C(=O)NC1CCN(C(=O)[C@H]2CC[C@@](C(=O)N[C@@H](CCC(=O)OC(C)(C)C)C(=O)OC(C)(C)C)(c3ccccc3)c3ccccc32)CC1 [Co. No. 108] |
| 2.77 nM | COc1ccccc1C(=O)NC1CCN(C(=O)[C@H]2CC[C@@](C(=O)N[C@@H](CCCCNC(=O)OC(C)(C)C)C(=O)OC(C)(C)C)(c3ccccc3)c3ccccc32)CC1 [Co. No. 109] |
| 136 nM | COc1ccccc1C(=O)NC1CCN(C(=O)[C@H]2CC[C@@](C(=O)N[C@@H](Cc3ccccc3)C(=O)OC(C)(C)C)(c3ccccc3)c3ccccc32)CC1 [Co. No. 112] |
